target: T1, USP19 (Homo sapiens, UniProt O94966); assay: USP19 fluorescence polarisation (FP) homogeneous assay; format: biochemical; parameters: Full-length USP19 was purchased from Boston Biochem (E-576); purchased Boston Biochem E-576; details: Ubiquitin-Lys-TAMRA substrate, full-length USP19 2.5 nM, average of at least two duplicate experiments
T1 sequence (O94966 1-1318): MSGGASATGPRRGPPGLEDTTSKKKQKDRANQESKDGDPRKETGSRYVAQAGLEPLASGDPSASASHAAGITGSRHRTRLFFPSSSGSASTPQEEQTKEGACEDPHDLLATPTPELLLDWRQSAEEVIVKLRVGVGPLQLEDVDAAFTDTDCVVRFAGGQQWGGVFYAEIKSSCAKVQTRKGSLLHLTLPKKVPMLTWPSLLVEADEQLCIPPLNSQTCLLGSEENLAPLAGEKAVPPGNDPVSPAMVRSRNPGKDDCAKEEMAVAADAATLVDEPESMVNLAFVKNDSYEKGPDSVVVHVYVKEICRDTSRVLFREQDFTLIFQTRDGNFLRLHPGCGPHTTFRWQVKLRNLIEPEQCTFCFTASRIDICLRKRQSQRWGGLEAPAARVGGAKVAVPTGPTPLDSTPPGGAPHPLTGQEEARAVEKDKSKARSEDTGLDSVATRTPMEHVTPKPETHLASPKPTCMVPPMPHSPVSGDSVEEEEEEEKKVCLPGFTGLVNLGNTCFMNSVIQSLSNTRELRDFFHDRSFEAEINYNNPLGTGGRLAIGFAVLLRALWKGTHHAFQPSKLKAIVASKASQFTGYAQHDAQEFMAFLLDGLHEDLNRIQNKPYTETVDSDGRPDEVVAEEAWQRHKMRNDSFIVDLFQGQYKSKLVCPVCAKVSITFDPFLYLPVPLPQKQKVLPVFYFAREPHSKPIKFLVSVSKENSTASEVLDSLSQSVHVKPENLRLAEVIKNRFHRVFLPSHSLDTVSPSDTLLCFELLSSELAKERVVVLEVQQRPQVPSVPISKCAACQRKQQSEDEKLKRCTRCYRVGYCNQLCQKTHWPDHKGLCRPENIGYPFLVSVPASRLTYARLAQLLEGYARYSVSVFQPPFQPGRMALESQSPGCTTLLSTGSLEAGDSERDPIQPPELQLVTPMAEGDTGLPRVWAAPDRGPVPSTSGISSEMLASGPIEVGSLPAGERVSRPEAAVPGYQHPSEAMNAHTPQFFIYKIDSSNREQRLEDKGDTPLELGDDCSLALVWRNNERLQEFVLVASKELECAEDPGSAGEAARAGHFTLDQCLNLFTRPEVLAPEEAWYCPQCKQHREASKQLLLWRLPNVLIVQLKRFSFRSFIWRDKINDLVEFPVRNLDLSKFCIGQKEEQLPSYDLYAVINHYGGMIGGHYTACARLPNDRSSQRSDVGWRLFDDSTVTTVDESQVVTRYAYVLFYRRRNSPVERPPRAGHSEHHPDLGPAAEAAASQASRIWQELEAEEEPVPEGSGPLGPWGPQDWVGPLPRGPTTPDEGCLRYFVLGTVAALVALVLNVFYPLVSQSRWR
Method: Unless otherwise stated, all other reagents were purchased from Sigma. Enzymatic reactions were conducted in black flat bottom polystyrene 384-well plates (Nunc) and 30 μL total volume. […] Inhibitors were stored as 10 mM DMSO stocks in an inert environment (low humidity, dark, low oxygen, room temperature) using the Storage Pod System and serial dilutions were prepared in buffer just prior to the assay (from 200 μM to 2 μM, 8-18 data point curve). Following incubation at RT for 30 min, the enzymatic reactions were initiated by dispensing the Ub substrate (500 nM, 10 μL). FP was measured every 15 min over a period of 90 min (within the linear range of the assay) using a Synergy 4 plate reader (BioTek) exciting at 530 nm and measuring the amount of parallel and perpendicular light at 575 nm. The FP signal was subsequently normalised to the no compound control.

Structure (SMILES)	IC50
C[C@H](CC1CCCCC1)C(=O)N1CCC(O)(Cn2cnc(-c3ccc(CO)cc3)cc2=O)C(C)(C)C1 (stereo partly drawn) [Example 139, 3-((1-((R)-3-Cyclohexyl-2-methylpropanoyl)-4-hydroxy-3,3-dimethylpiperidin-4-yl)methyl)-6-(4-(hydroxymethyl)phenyl)pyrimidin-4(3H)-one]	< 500 nM
C[C@H](CC1CCCCC1)C(=O)N1CCC(O)(Cn2cnc(-c3ccccc3CN)cc2=O)C(C)(C)C1 (some centres unmarked) [Example 141]	< 500 nM
C[C@H](CC1CCCCC1)C(=O)N1CCC(O)(Cn2cc(C(=O)N(C)C)c(Cl)cc2=O)C2(CCCC2)C1 (stereo partly drawn) [Example 144, 4-Chloro-1-((7-((R)-3-cyclohexyl-2-methylpropanoyl)-10-hydroxy-7-azaspiro[4.5]decan-10-yl)methyl)-N,N-dimethyl-6-oxo-1,6-dihydropyridine-3-carboxamide]	< 500 nM
C[C@H](CC1CCCCC1)C(=O)N1CCC(O)(Cn2cc(C(=O)N(C)C)c(N(C)C)cc2=O)C2(CCCC2)C1 (stereo partly drawn) [Example 145, 1-((7-((R)-3-Cyclohexyl-2-methylpropanoyl)-10-hydroxy-7-azaspiro[4.5]decan-10-yl)methyl)-4-(dimethylamino)-N,N-dimethyl-6-oxo-1,6-dihydropyridine-3-carboxamide]	< 500 nM
C[C@H](CC1CCCCC1)C(=O)N1CCC(O)(Cn2cc(C(=O)N(C)C)c(-c3ccsc3)cc2=O)C2(CCCC2)C1 (stereo partly drawn) [Example 155, 1-((7-((R)-3-Cyclohexyl-2-methylpropanoyl)-10-hydroxy-7-azaspiro[4.5]decan-10-yl)methyl)-N,N-dimethyl-6-oxo-4-(thiophen-3-yl)-1,6-dihydropyridine-3-carboxamide]	< 500 nM
C[C@H](CC1CCCCC1)C(=O)N1CCC(O)(Cn2cc(C(=O)N(C)C)c(-c3cccc(CO)c3)cc2=O)C2(CCCC2)C1 (stereo partly drawn) [Example 156, 1-((7-((R)-3-Cyclohexyl-2-methylpropanoyl)-10-hydroxy-7-azaspiro[4.5]decan-10-yl)methyl)-4-(3-(hydroxymethyl)phenyl)-N,N-dimethyl-6-oxo-1,6-dihydropyridine-3-carboxamide]	< 500 nM
CN(C)C(=O)c1cn(CC2(O)CCN(C(=O)C(O)CC3CCCCC3)CC23CCCC3)c(=O)cc1-c1ccccc1 (centres unmarked) [Example 157, 1-((7-(3-Cyclohexyl-2-hydroxypropanoyl)-10-hydroxy-7-azaspiro[4.5]decan-10-yl)methyl)-N,N-dimethyl-6-oxo-4-phenyl-1,6-dihydropyridine-3-carboxamide]	< 500 nM
C[C@H](CC1CCCCC1)C(=O)N1CCC(O)(Cn2cc(C(=O)N(C)C)c(-c3ccc(CO)cc3)cc2=O)C2(CCCC2)C1 (stereo partly drawn) [Example 162, 1-((7-((R)-3-Cyclohexyl-2-methylpropanoyl)-10-hydroxy-7-azaspiro[4.5]decan-10-yl)methyl)-4-(4-(hydroxymethyl)phenyl)-N,N-dimethyl-6-oxo-1,6-dihydropyridine-3-carboxamide]	< 500 nM
CN(C)C(=O)c1cn(C[C@]2(O)CCN(C(=O)[C@H](CO)CC3CCC3)CC2(C)C)c(=O)cc1-c1ccccc1 [Example 166, 1-(((S)-1-((S)-3-Cyclobutyl-2-(hydroxymethyl)propanoyl)-4-hydroxy-3,3-dimethylpiperidin-4-yl)methyl)-N,N-dimethyl-6-oxo-4-phenyl-1,6-dihydropyridine-3-carboxamide]	< 500 nM
CN(C)C(=O)c1cn(C[C@@]2(O)CCN(C(=O)[C@H](CO)CC3CCC3)CC2(C)C)c(=O)cc1-c1ccccc1 [Example 167, 1-(((R)-1-((S)-3-Cyclobutyl-2-(hydroxymethyl)propanoyl)-4-hydroxy-3,3-dimethylpiperidin-4-yl)methyl)-N,N-dimethyl-6-oxo-4-phenyl-1,6-dihydropyridine-3-carboxamide]	5000 to 50000 nM
CN(C)C(=O)c1cn(CC2(O)CCN(C(=O)[C@@H]3C[C@@H]3c3ccccc3)CC23CCCC3)c(=O)cc1-c1ccccc1 (stereo partly drawn) [Example 174, 1-((10-Hydroxy-7-((1R,2S)-2-phenylcyclopropane-1-carbonyl)-7-azaspiro[4.5]decan-10-yl)methyl)-N,N-dimethyl-6-oxo-4-phenyl-1,6-dihydropyridine-3-carboxamide]	< 500 nM
CC(C)CC(C)C(=O)N1CCC(O)(Cn2cc(C(=O)N(C)C)c(-c3ccccc3)cc2=O)C2(CCCC2)C1 (centres unmarked) [Example 197, 1-((7-(2,4-Dimethylpentanoyl)-10-hydroxy-7-azaspiro[4.5]decan-10-yl)methyl)-N,N-dimethyl-6-oxo-4-phenyl-1,6-dihydropyridine-3-carboxamide]	< 500 nM

The remaining lines, values ahead:

IC50	Structure (SMILES)
< 500 nM	C[C@H](CC1CC1)C(=O)N1CCC(O)(Cn2cc(C(=O)N(C)C)c(-c3ccccc3)cc2=O)C2(CCCC2)C1 (stereo partly drawn) [Example 149, 1-((7-((R)-3-Cyclopropyl-2-methylpropanoyl)-10-hydroxy-7-azaspiro[4.5]decan-10-yl)methyl)-N,N-dimethyl-6-oxo-4-phenyl-1,6-dihydropyridine-3-carboxamide]
< 500 nM	CN(C)C(=O)c1cn(C[C@]2(O)CCN(C(=O)[C@H](CO)CC3CCCCC3)CC2(C)C)c(=O)cc1-c1ccccc1 [Example 152, 1-(((S)-1-((S)-3-Cyclohexyl-2-(hydroxymethyl)propanoyl)-4-hydroxy-3,3-dimethylpiperidin-4-yl)methyl)-N,N-dimethyl-6-oxo-4-phenyl-1,6-dihydropyridine-3-carboxamide]
5000 to 50000 nM	CN(C)C(=O)c1cn(C[C@@]2(O)CCN(C(=O)[C@H](CO)CC3CCCCC3)CC2(C)C)c(=O)cc1-c1ccccc1 [Example 153, 1-(((R)-1-((S)-3-Cyclohexyl-2-(hydroxymethyl)propanoyl)-4-hydroxy-3,3-dimethylpiperidin-4-yl)methyl)-N,N-dimethyl-6-oxo-4-phenyl-1,6-dihydropyridine-3-carboxamide]
< 500 nM	COC[C@H](CC1CCCCC1)C(=O)N1CC[C@@](O)(Cn2cc(C(=O)N(C)C)c(-c3ccccc3)cc2=O)C(C)(C)C1 [Example 160, 1-(((S)-1-((S)-3-Cyclohexyl-2-(methoxymethyl)propanoyl)-4-hydroxy-3,3-dimethylpiperidin-4-yl)methyl)-N,N-dimethyl-6-oxo-4-phenyl-1,6-dihydropyridine-3-carboxamide]
< 500 nM	CN(C)C(=O)c1cn(C[C@]2(O)CCN(C(=O)[C@H](CCO)CC3CCCCC3)CC2(C)C)c(=O)cc1-c1ccccc1 [Example 164, 1-(((S)-1-((S)-2-(Cyclohexylmethyl)-4-hydroxybutanoyl)-4-hydroxy-3,3-dimethylpiperidin-4-yl)methyl)-N,N-dimethyl-6-oxo-4-phenyl-1,6-dihydropyridine-3-carboxamide]
< 500 nM	C[C@H](CC1CCCCC1)C(=O)N1CCC(O)(Cn2cc(C(=O)N3CCOCC3)c(-c3ccccc3)cc2=O)C(C)(C)C1 (some centres unmarked) [Example 168]
< 500 nM	CC(=O)N1CCN(C(=O)c2cn(CC3(O)CCN(C(=O)[C@H](C)CC4CCCCC4)CC3(C)C)c(=O)cc2-c2ccccc2)CC1 (some centres unmarked) [Example 169]
< 500 nM	C[C@H](CC1CCCCC1)C(=O)N1CCC(O)(Cn2cc(C(=O)N3CCN(C)CC3)c(-c3ccccc3)cc2=O)C(C)(C)C1 (stereo partly drawn) [Example 170, 1-((1-((R)-3-Cyclohexyl-2-methylpropanoyl)-4-hydroxy-3,3-dimethylpiperidin-4-yl)methyl)-5-(4-methylpiperazine-1-carbonyl)-4-phenylpyridin-2(1H)-one]

Reference: US20220016115A1, “USP19 INHIBITORS FOR USE IN THERAPY” (ALMAC DISCOVERY LIMITED, priority 2018, published 2022)
